Entries after “also recorded” stand apart in the source; their conditions may differ.
Legend:
[1] = Cloud point (LCST) measurement by spectrophotometry, light transmission at 750 nm; type: physicochemical; conditions: 2 wt % hydroxypropylcellulose; for Effect of modifier on the LCST of hydroxypropylcellulose (Klucel EF): 0.2M sodium citrate, 0.2M magnesium sulfate, 0.2M potassium phosphate monobasic, 0.02M calcium sulfate, 1M mannitol, 1M xylitol
From the text: The critical solution temperature of a polymer can be measured by spectrophotometry, by differential scanning calorimetry, or by nuclear magnetic resonance spectroscopy. For example, the spectrophotometrical method can be used to measure the cloud point of an LCST polymer. “Cloud point” generally refers to the temperature where the polymer solution in an aqueous medium becomes cloudy, indicating initiation of precipitation or flocculation of the polymer. The spectrophotometical method, as described as follows, can be adopted to screen various combinations of LCST polymers and modifiers to determine whether a modifier is capable of reducing the LCST of a polymer to about 37° C. or lower.
An LCST polymer is dissolved in distilled water and, optionally, separate solutions of LCST modifiers at various concentrations. Each polymer or polymer/modifier test solution is placed in a separate container, such as a bottle or a beaker, and each container is placed in a water bath. The water bath is equipped with a temperature regulator, and the temperature of the bath is set at approximately 60° C. (the temperature of the bath can start at a high temperature or, alternatively, the temperature of the water bath can start low and be increased gradually at a rate of, e.g., 1° C./min). While in the water bath, each test solution is circulated through a 1-cm flowthrough quartz cuvette using a peristaltic pump (Masterflex) at a flow rate of 50 ml/min. The temperature of the test solution is monitored using a thermocouple, the lead of which is inserted into the test solution in the container. Alternatively, the lead of the thermocouple can be inserted into the cuvette through tubing connecting the container and the cuvette. The light transmission (T %) of each solution is measured spectrophotometrically with a UV spectrophotometer at a wavelength of 750 nm. Initially, spectrophotometric measurements are taken at 2-3° C. intervals. Near the cloud point of a particular polymer or polymer/modifier combination, spectrophotometric measurements are taken more frequently (e.g., at 1 ° C. intervals). The cloud point is ascertained as the temperature at which the light transmission is 90% of the transmission at room temperature.

[2] = Tablet disintegration time in deionized water at 37° C., disintegration tester; type: physicochemical; conditions: 500 mg tablets, 1.3 cm diameter; 300 ml DI water at 37° C., 200 rpm paddle; n=3
Method: To compare the cohesive properties of the modifiers tested in Example 2, tablets containing 95 wt % of each potential LSCT modifier and 5 wt % of cross-linked sodium carboxylmethylcellulose (Croscarmellose sodium) were tested for their average disintegration time in aqueous medium using a disintegration tester (LIJ-2, Vanguard Pharmaceutical Machinery, Inc. USA). The potential LCST modifier and Croscarmellose sodium were dry-blended in a vial and 500 mg of each blend were compressed under 1 metric ton of compression pressure using a 1.3 cm diameter rounding tool. The resulting tablets were placed into 300 ml of deionized (DI) water (at 37° C., agitated using a 200 rpm paddle) and the disintegration times of the tablets (i.e., the time that it took for each tablet to completely dissolve) were measured. Disintegration times were measured for three tablets of each modifier and average disintegration rates and standard deviates were determined. […]
An orally disintegrating placebo tablet comprising hydroxypropylcellulose as the LCST polymer and calcium sulfate as the modifier was manufactured as follows. […] The mean disintegration time of the tablets (n=3) was 35 seconds, with standard deviation of 4 seconds, as measured in de-ionized water at 37° C. using a disintegration tester (LIJ-2, Vanguard Pharmaceutical Machinery, Inc. USA). […]

Effect of modifier on the LCST of hydroxypropylcellulose (Klucel EF) ([1]; listed as potassium phosphate (monobasic)) | Compound | Effect of modifier on the LCST of hydroxypropylcellulose (Klucel EF) [1] | Effect of electrolyte modifier on the LCST of hydroxypropylcellulose, compared at equal concentration ([1]; electrolytes at 0.02M) | Disintegration time of tablets of 95 wt % modifier and 5 wt % Croscarmellose sodium [2]
 | O=S(=O)([O-])[O-].[Ca+2] [calcium sulfate] | significantly reduce the LCST; also recorded: capable of reducing the LCST of hydroxypropylcellulose | most effective reducer; also recorded: strongest effect on reducing the LCST | one
 | O=S(=O)([O-])[O-].[Mg+2] [magnesium sulfate] | significantly reduce the LCST; also recorded: capable of reducing the LCST of hydroxypropylcellulose |  | 
 | OC[C@@H](O)[C@@H](O)[C@H](O)[C@H](O)CO [mannitol] | significantly reduce the LCST; also recorded: capable of reducing the LCST of hydroxypropylcellulose |  | 
significantly reduce the LCST | O=P([O-])(O)O.[K+] [potassium phosphate monobasic] | capable of reducing the LCST of hydroxypropylcellulose |  | one
 | O=C([O-])CC(O)(CC(=O)[O-])C(=O)[O-].[Na+].[Na+].[Na+] [sodium citrate] | significantly reduce the LCST; also recorded: capable of reducing the LCST of hydroxypropylcellulose |  | 
 | OC[C@@H](O)[C@H](O)[C@@H](O)CO [xylitol] | significantly reduce the LCST; also recorded: capable of reducing the LCST of hydroxypropylcellulose |  | 
